PubChem BioAssay AID330 (DTP/NCI, 2004)
Where “and” joins values, the source holds several entries; their conditions need not be identical. Equal values may be shown once. Toxic doses and inconclusive results are not listed. The calls were made as follows: active = survival T/C of 150% or more; inactive = T/C below 125% in these data.

System: P388 leukemia ip, CD2F1 mice, survival T/C
Assay: NCI In Vivo Anticancer Drug Screen. Data for tumor model P388 Leukemia (intraperitoneal) in CD2F1 (CDF1) mice
Settings: endpoint: median survival time, higher = longer survival
Outline: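 Mice carrying the transplanted tumor received test compound or vehicle. Survival was recorded in each group, and the value is the treated-group measurement divided by that of the vehicle-treated control group.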

[1] = dose: 50.0 mg/kg/injection, schedule: Q01DX005 (ip), vehicle: saline with Tween-80
[2] = dose: 100.0 mg/kg/injection, schedule: Q01DX001 (ip), vehicle: Klucel (hydroxypropylcellulose) (HPC)
[3] = dose: 100.0 mg/kg/injection, schedule: Q01DX005 (ip), vehicle: saline with Tween-80
[4] = dose: 200.0 mg/kg/injection, schedule: Q01DX005 (ip), vehicle: saline with Tween-80
[5] = dose: 60.0 mg/kg/injection, schedule: Q01DX005 (ip), vehicle: saline with Tween-80
[6] = dose: 120.0 mg/kg/injection, schedule: Q01DX005 (ip), vehicle: saline with Tween-80
[7] = dose: 240.0 mg/kg/injection, schedule: Q01DX005 (ip), vehicle: saline with Tween-80
[8] = dose: 60.0 mg/kg/injection, schedule: Q01DX005 (ip), vehicle: saline
[9] = dose: 25.0 mg/kg/injection, schedule: Q01DX009 (ip), vehicle: saline with Tween-80
[10] = dose: 12.5 mg/kg/injection, schedule: Q01DX005 (ip), vehicle: saline with Tween-80
[11] = dose: 25.0 mg/kg/injection, schedule: Q01DX005 (ip), vehicle: saline with Tween-80
[12] = dose: 100.0 mg/kg/injection, schedule: Q01DX009 (ip), vehicle: Klucel (hydroxypropylcellulose) (HPC)
[13] = dose: 200.0 mg/kg/injection, schedule: Q01DX009 (ip), vehicle: Klucel (hydroxypropylcellulose) (HPC)
[14] = dose: 25.0 mg/kg/injection, schedule: Q01DX005 (ip), vehicle: Klucel (hydroxypropylcellulose) (HPC)
[15] = dose: 50.0 mg/kg/injection, schedule: Q01DX005 (ip), vehicle: Klucel (hydroxypropylcellulose) (HPC)
[16] = dose: 100.0 mg/kg/injection, schedule: Q04DX003 (ip), vehicle: Klucel (hydroxypropylcellulose) (HPC)
[17] = dose: 200.0 mg/kg/injection, schedule: Q04DX003 (ip), vehicle: Klucel (hydroxypropylcellulose) (HPC)
[18] = dose: 25.0 mg/kg/injection, schedule: Q01DX009 (ip), vehicle: Klucel (hydroxypropylcellulose) (HPC)
[19] = dose: 50.0 mg/kg/injection, schedule: Q01DX009 (ip), vehicle: Klucel (hydroxypropylcellulose) (HPC)
[20] = dose: 100.0 mg/kg/injection, schedule: Q01DX009 (ip), vehicle: saline with Tween-80
[21] = dose: 400.0 mg/kg/injection, schedule: Q04DX003 (ip), vehicle: Klucel (hydroxypropylcellulose) (HPC)
[22] = dose: 100.0 mg/kg/injection, schedule: Q01DX005 (ip), vehicle: Klucel (hydroxypropylcellulose) (HPC)
[23] = dose: 200.0 mg/kg/injection, schedule: Q01DX005 (ip), vehicle: Klucel (hydroxypropylcellulose) (HPC)

Measured: T/C

COc1cc2c(OC)c(c1)CCCC1=CC(=O)C=C(CCC2)C1=O
inactive: [1] 94 % of control | [2] 92 % of control | [3] 103 % of control | dose: 200.0 mg/kg/injection, schedule: Q01DX001 (ip), vehicle: Klucel (hydroxypropylcellulose) (HPC) 100 % of control | [4] 100 % of control | dose: 400.0 mg/kg/injection, schedule: Q01DX001 (ip), vehicle: Klucel (hydroxypropylcellulose) (HPC) 90 % of control

CCOC(=O)OC(C#N)(c1ccc([N+](=O)[O-])cc1)c1nccc2ccccc12 (stereo not drawn)
inactive: dose: 12.5 mg/kg/injection, schedule: Q01DX009 (ip), vehicle: saline 93 % of control | dose: 25.0 mg/kg/injection, schedule: Q01DX009 (ip), vehicle: saline 97 % of control | dose: 50.0 mg/kg/injection, schedule: Q01DX009 (ip), vehicle: suspension in saline 87 % of control

COc1cccc(C2=NC(=C3CCCCC3)C(=O)O2)c1
inactive: [5] 105 % of control | [6] 105 % of control | [7] 100 % of control

CC(=O)/C(=C\c1ccc([N+](=O)[O-])cc1)C(=O)CCN(C)C
inactive: dose: 30.0 mg/kg/injection, schedule: Q01DX005 (ip), vehicle: saline 118 % of control | [8] 121 % of control and 123 % of control

O=C(NC(=O)c1c(F)cccc1F)Nc1nc2ccccc2s1
inactive: dose: 6.25 mg/kg/injection, schedule: Q01DX009 (ip), vehicle: saline with Tween-80 113 % of control | dose: 12.5 mg/kg/injection, schedule: Q01DX009 (ip), vehicle: saline with Tween-80 100 % of control | [9] 105 % of control

COc1cc(C(=O)Nc2ccc(NC3=NCCN3)cc2)cc(C(=O)Nc2ccc(NC3=NCCN3)cc2)c1
inactive: dose: 6.25 mg/kg/injection, schedule: Q01DX005 (ip), vehicle: saline with Tween-80 102 % of control | [10] 106 % of control | [11] 115 % of control

CCC(=O)c1c(O)c2ccccc2oc1=O
inactive: dose: 15.0 mg/kg/injection, schedule: Q01DX005 (ip), vehicle: saline with Tween-80 104 % of control | dose: 30.0 mg/kg/injection, schedule: Q01DX005 (ip), vehicle: saline with Tween-80 107 % of control | [5] 104 % of control

CC1Nc2ccccc2NC1C (stereo not drawn)
inactive: dose: 6.25 mg/kg/injection, schedule: Q01DX009 (ip), vehicle: saline + Tween-80 + alcohol 98 % of control | dose: 12.5 mg/kg/injection, schedule: Q01DX009 (ip), vehicle: saline + Tween-80 + alcohol 96 % of control | dose: 25.0 mg/kg/injection, schedule: Q01DX009 (ip), vehicle: saline + Tween-80 + alcohol 99 % of control and 95 % of control | dose: 50.0 mg/kg/injection, schedule: Q01DX009 (ip), vehicle: saline + Tween-80 + alcohol 91 % of control | dose: 100.0 mg/kg/injection, schedule: Q01DX009 (ip), vehicle: saline + Tween-80 + alcohol 100 % of control

COCCN1C(N)=C(C#N)N=C2CCCC(N=C(C#N)C#N)=C21
inactive: [1] 100 % of control | [3] 107 % of control | [4] 101 % of control

CN(C)CC[Si](C)(C)N(C)C
inactive: [8] 107 % of control | dose: 120.0 mg/kg/injection, schedule: Q01DX005 (ip), vehicle: saline 102 % of control

C[N+]1(C)CC=CCC1c1ccccc1 (stereo not drawn)
inactive: dose: 6.25 mg/kg/injection, schedule: Q01DX005 (ip), vehicle: saline 104 % of control | dose: 12.5 mg/kg/injection, schedule: Q01DX005 (ip), vehicle: saline 105 % of control | dose: 25.0 mg/kg/injection, schedule: Q01DX005 (ip), vehicle: saline 98 % of control

Nc1ccc(-c2csc(COc3ccccc3)n2)cc1
inactive: [12] 106 % of control | [13] 103 % of control

COc1ccc2cc1-c1cc(ccc1O)CCC(O)CC1CCCC(CC(O)CC2)N1 (stereo not drawn)
inactive: dose: 15.0 mg/kg/injection, schedule: Q01DX009 (ip), vehicle: Klucel (hydroxypropylcellulose) (HPC) 100 % of control | dose: 30.0 mg/kg/injection, schedule: Q01DX009 (ip), vehicle: Klucel (hydroxypropylcellulose) (HPC) 107 % of control

COc1ccc2nc3cc(Cl)ccc3c(NCC(O)CNc3c4ccc(Cl)cc4nc4ccc(OC)nc34)c2n1
inactive: [5] 92 % of control | [6] 90 % of control | [7] 90 % of control

Cc1ccc(/C=N\NC(=O)NN)cc1
inactive: [14] 97 % of control | [15] 102 % of control

C=C1C(=O)OC2C(O)CCCC12 (stereo not drawn)
inactive: dose: 50.0 mg/kg/injection, schedule: Q04DX003 (ip), vehicle: Klucel (hydroxypropylcellulose) (HPC) 105 % of control and 110 % of control | [16] 98 % of control and 103 % of control | [17] 110 % of control

Clc1cc(Cl)c(Cl)nn1
inactive: [18] 98 % of control | [19] 94 % of control | [12] 92 % of control

O=C(CCCCC(=O)N/N=C\c1ccccn1)N/N=C\c1ccccn1
inactive: [20] 109 % of control | dose: 200.0 mg/kg/injection, schedule: Q01DX009 (ip), vehicle: saline with Tween-80 100 % of control | dose: 400.0 mg/kg/injection, schedule: Q01DX009 (ip), vehicle: saline with Tween-80 109 % of control

CC1CN(C(=O)Nc2ccc(Cl)c(Cl)c2)C(=O)O1 (stereo not drawn)
inactive: [16] 101 % of control | [17] 99 % of control | [21] 100 % of control

OCC1CCCN1 (stereo not drawn)
inactive: dose: 100.0 mg/kg/injection, schedule: Q04DX002 (ip), vehicle: saline 102 % of control | dose: 200.0 mg/kg/injection, schedule: Q04DX002 (ip), vehicle: saline 96 % of control

C[n+]1cc2ccccc2cc1CC(=S)[S-]
inactive: [18] 98 % of control | [19] 98 % of control | [12] 99 % of control | [13] 91 % of control

FC(F)(F)C1(C(F)(F)F)OS2(OC1(C(F)(F)F)C(F)(F)F)OC(C(F)(F)F)(C(F)(F)F)C(C(F)(F)F)(C(F)(F)F)O2
inactive: [16] 91 % of control | [17] 91 % of control | [21] 105 % of control

CCOc1c(N=Nc2ccc(Cl)cc2)c(C)nn1C(=S)S
inactive: dose: 60.0 mg/kg/injection, schedule: Q01DX005 (ip), vehicle: Klucel (hydroxypropylcellulose) (HPC) 96 % of control | dose: 120.0 mg/kg/injection, schedule: Q01DX005 (ip), vehicle: Klucel (hydroxypropylcellulose) (HPC) 97 % of control

CCOc1ccc(-n2c(=O)c(N=Nc3ccccc3C)c(O)n(-c3ccc(Br)cc3)c2=S)cc1
inactive: dose: 100.0 mg/kg/injection, schedule: Q01DX001 (ip), vehicle: saline with Tween-80 98 % of control | dose: 200.0 mg/kg/injection, schedule: Q01DX001 (ip), vehicle: saline with Tween-80 92 % of control | dose: 400.0 mg/kg/injection, schedule: Q01DX001 (ip), vehicle: saline with Tween-80 105 % of control

O=C1CC(c2ccccc2)C(=O)N1CN1CC=CCC1 (stereo not drawn)
inactive: [2] 124 % of control

O=C(O)c1c(Cl)cccc1Cl
inactive: [9] 109 % of control | dose: 25.0 mg/kg/injection, schedule: Q04DX003 (ip), vehicle: saline with Tween-80 100 % of control | dose: 50.0 mg/kg/injection, schedule: Q01DX009 (ip), vehicle: saline with Tween-80 100 % of control | dose: 50.0 mg/kg/injection, schedule: Q04DX003 (ip), vehicle: saline with Tween-80 95 % of control | [20] 100 % of control | dose: 100.0 mg/kg/injection, schedule: Q04DX003 (ip), vehicle: saline with Tween-80 95 % of control

C1=C(c2ccccc2)CC2CCC1N2Cc1ccccc1 (stereo not drawn)
inactive: [10] 99 % of control | [11] 103 % of control | [1] 101 % of control and 103 % of control

O=[N+]([O-])c1ccc(SN2CCCCC2CC2CCCCC2)c([N+](=O)[O-])c1 (stereo not drawn)
inactive: [15] 105 % of control | [22] 98 % of control | [23] 96 % of control

O=C1C2CCCC1C(c1ccccc1)NC2c1ccccc1 (stereo not drawn)
inactive: [14] 104 % of control | [15] 102 % of control | [22] 96 % of control | [23] 98 % of control
